In patent US9340500B2, “Aromatic heterocyclic derivative having TRPV4-inhibiting activity” (SHIONOGI & CO., LTD., priority 2011, dated 2016) one finds IC50 and Ki data, which are given here for three compounds.

The target in experiment [1] is T1, human TRPV4 (Homo sapiens (Human), UniProt Q9HBA0). The experiment in a line: Test Example 1: measurement of TRPV4 inhibitory activity (Fluo 4-AM, FLIPR TETRA, 4α-PDD 1 μmol/L). The class given is cell-based. To be noted: hTRPV4/CHO cells, 4α-PDD 1 μmol/L. An outline of the steps:
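Calcium influx evoked by 4α-PDD (final 1 μmol/L) in hTRPV4/CHO-K1 cells loaded with Fluo-4 AM (final 3 μmol/L), pH 7.4 HEPES-Hanks with probenecid; compounds added 5 min earlier. Inhibition relative to 20 μM Ruthenium Red gave IC50 (logistic), converted to Ki via agonist EC50.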

Experiment [2] deals with T1, human TRPV4. The experiment can be described thus: Test Example 3: measurement of TRPV4 inhibitory activity (Fluo-3, FDSS 3000, 4α-PDD). Format: cell-based. To be noted: hTRPV4/CHO cells, calculated from IC50 and 4α-PDD EC50. The procedure, abridged:
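Fluo-3-loaded CHO-K1 cells stably expressing TRPV4 in HEPES/probenecid Hanks buffer pH 7.4; compound added, then 4α-PDD, Ca2+ fluorescence (Ex 480/Em 540 nm) read 8 min. Max-Min normalized to 10 μM Ruthenium Red (100%) and vehicle; IC50 from 10-point 3-fold series converted to Ki using 4α-PDD EC50 and concentration.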

T1 sequence (Q9HBA0 whole entry): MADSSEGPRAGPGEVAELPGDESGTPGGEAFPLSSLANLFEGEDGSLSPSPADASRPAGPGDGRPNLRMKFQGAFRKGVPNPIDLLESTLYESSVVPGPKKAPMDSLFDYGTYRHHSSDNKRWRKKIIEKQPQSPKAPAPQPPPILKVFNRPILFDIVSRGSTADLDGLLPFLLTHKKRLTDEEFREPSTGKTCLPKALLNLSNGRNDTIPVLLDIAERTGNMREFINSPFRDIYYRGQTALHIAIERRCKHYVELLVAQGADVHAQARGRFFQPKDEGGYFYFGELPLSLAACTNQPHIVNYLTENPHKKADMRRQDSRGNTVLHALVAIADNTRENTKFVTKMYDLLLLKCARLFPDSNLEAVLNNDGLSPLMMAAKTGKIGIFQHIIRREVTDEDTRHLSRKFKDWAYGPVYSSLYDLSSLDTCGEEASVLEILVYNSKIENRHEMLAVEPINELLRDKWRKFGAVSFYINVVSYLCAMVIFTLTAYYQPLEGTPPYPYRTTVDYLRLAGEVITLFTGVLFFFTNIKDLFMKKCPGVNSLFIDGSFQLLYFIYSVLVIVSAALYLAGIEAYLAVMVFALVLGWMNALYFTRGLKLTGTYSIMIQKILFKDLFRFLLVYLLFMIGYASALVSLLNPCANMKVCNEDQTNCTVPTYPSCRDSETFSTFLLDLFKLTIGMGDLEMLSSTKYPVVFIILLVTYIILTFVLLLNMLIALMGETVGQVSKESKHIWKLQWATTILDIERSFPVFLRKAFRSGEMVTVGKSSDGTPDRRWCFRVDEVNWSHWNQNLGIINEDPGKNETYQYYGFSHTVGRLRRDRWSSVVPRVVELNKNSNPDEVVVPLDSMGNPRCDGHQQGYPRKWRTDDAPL

For orientation: IC50 means the concentration needed to halve the response being measured. Read a low IC50 as greater potency in that assay. By Ki is commonly meant the dissociation constant of the complex between target and ligand, obtained from inhibition or displacement. The compound `Cc1c(C(=O)Nc2cccc(C(F)(F)F)c2)ccn1CCCN1CCOCC1` [Compound I-007] returned a concentration for half-maximal inhibition (IC50) at human TRPV4 [1] of 8.9 µM. Besides, the Ki at human TRPV4 [2] is 1.45 µM.
On to `Cc1c(C(=O)Nc2cccc(C(F)(F)F)c2)cc(-c2ccccc2)n1CCCNS(C)(=O)=O` [Compound I-026], for which, on human TRPV4 [1], the IC50 amounted to 0.86 µM. Besides, the Ki at human TRPV4 [2] was 0.427 µM.
Consider `Cc1c(C(=O)Nc2cccc(C(F)(F)F)c2)cc(-c2ccccc2)n1CCCN(C)C` [Compound I-018], for which it took 0.33 µM to reach half-maximal inhibition against human TRPV4 [1] (IC50). The Ki at human TRPV4 [2] is 0.169 µM.
